Data reported in patent US11192880B2, “Quinolone compounds as inhibitors of the BCL6 BTB domain protein-protein interaction and/or as BCL6 degraders” (Ontario Institute for Cancer Research (OICR), priority 2017, dated 2021).

What was measured:
[1] = Liver microsomal metabolic stability, human; type: in vitro ADME; conditions: % remaining after 60 minutes, 1 μM compound, 0.5 mg/mL protein
Protocol: (§1) (f) Microsomal Stability Assays
(§2) Liver Microsomal Metabolic Stability
(§3) Working stocks were initially diluted to a concentration of 40.0 μM in 0.1 M potassium phosphate buffer (pH 7.4) before addition to the reaction vials. CD-1 mouse (male) or pooled human liver microsomes (Corning Gentest) were utilized at a final concentration of 0.5 mg/mL (protein). Duplicate wells were used for each time point (0 and 60 minutes). Reactions were carried out at 37° C. in an orbital shaker at 175 rpm, and the final DMSO concentration was kept constant at 0.1%. The final volume for each reaction was 100 μL, which includes the addition of an NADPH-Regeneration Solution (NRS) mix. This NRS mix is comprised of glucose 6-phosphate dehydrogenase, NADP+, MgCl2, and glucose 6-phosphate. Upon completion of the 60 minute time point, reactions were terminated by the addition of 2-volumes (200 μL) of ice-cold, acetonitrile containing 0.5% formic acid and internal standard. Samples were then centrifuged at 4,000 rpm for 10 minutes to remove debris and precipitated protein. Approximately 150 μL of supernatant was subsequently transferred to a new 96 well microplate for LC/MS analysis:
(§4) Narrow-window mass extraction LC-MS analysis was performed for all samples in this study using a Waters Xevo quadrupole time-of-flight (QTof) mass spectrometer to determine relative peak areas of test compounds. The percent remaining values are calculated using the following equations: % remaining=(A)/A0×100
(§5) A is area response after incubation
(§6) A0 is area response at initial time point

[2] = Liver microsomal metabolic stability, mouse; type: in vitro ADME; conditions: % remaining after 60 minutes, 1 μM compound, 0.5 mg/mL protein
Protocol: as §1, §2, §3, §4, §5, §6

[3] = reported; limits its use in animal studies; cited from earlier work
[4] = target: BTB domain of BCL6 / SMRT BBD peptide (Homo sapiens (Human), UniProt P41182); experiment: BCL6-BTB-SMRT peptide inhibition fluorescence polarization (FP) screen; type: binding; conditions: 1.25 uM BCL6-BTB, 20 nM Bodipy-TMR SMRT peptide probe; lower limit of assay 1 uM
Protocol: (a) BCL6-BTB-SMRT Peptide Inhibition Fluorescence Polarization (FP) Screen
Compounds were dissolved in 100% DMSO at 10 mM, assayed fresh, and then stored at −20° C. for repeat studies and future work. The reaction mixture consists of 1.25 uM of the 25 kd BCL6-BTB domain (Thioredoxin-His6-STag-TEV-biotinylation-thrombin-BCL6 amino acids 1-129) plus 20 nM of the peptide probe Ac-GSLVATVKEAGRSIHEIPA (SEQ ID NO:1) with 16 amino-acids (16-mer peptide) from the SMRT BBD (1414-1429) with a Bodipy-TMR fluorescent label on the lysine. […] 20 ul of this assay mixture was added to each well of the 384 well plates with the exception of the control wells that contained no protein (for setting the minimum FP value). Compounds were directly sprayed using an HP D300 Digital Dispenser from 10 mM DMSO stocks onto black 384 well plates (greiner bio-one #781900) in a concentration range from 1 uM to 500 uM (10 points in duplicate). The assay was equilibrated for 1 hour prior to reading the FP values (Ex 540 nm/Em 580 nm) with a Perkin Elmer Envision plate reader. The results were curve fitted and IC50 values were calculated using the BioAssay software from CambridgeSoft.

BCL6 BTB domain = BCL6 BTB domain (Homo sapiens (Human), UniProt P41182); experiment: Surface plasmon resonance (SPR) assay; type: binding; conditions: single cycle kinetic analysis, Biacore T200
Protocol: (b) Surface Plasmon Resonance (SPR) Assay
SPR studies were performed using a Biacore™ T200 instrument (GE Health Sciences Inc.). The BCL6 BTB protein used in the FP assay was biotinylated using the site specific biotinylating enzyme BirA, and then cleaved with TEV protease to produce the BCL6 BTB domain (biotin-thrombin-BCL6 amino acids 1-129; 17 kd) that was use in SPR. This protein was stably captured (1000 RU) to streptavidin coupled SA chips (BR-1005-31, GE Health Sciences Inc.) according to the manufacture's protocol. Compounds were dissolved in 100% DMSO at 10 mM and 2-fold serial dilutions were done in 100% DMSO. For SPR analysis the serially titrated compounds were diluted 1/20 into buffer (10 mM HEPES pH7.4, 150 mM NaCl, 0.05% Tween-20, 3 mM EDTA) giving a final concentration of 5% DMSO. The Biacore flow rate was set at 100 ul/min. For KD determinations, single cycle kinetic analysis was performed with an on time of 60 seconds, and an off time of 300 seconds. Curve fitting and KD calculations were done with the Biacore T200 Evaluation software (GE Health Sciences Inc).

[5] = tested on: BCL6 reporter construct in SuDHL4-3xBCL6-TK-Luc cells; experiment: Cell-based BCL6 reporter luciferase assay; conditions: 48 h, two days
Protocol: (c) Cell-Based Luciferase Assay:
A BCL6 reporter construct containing three copies of the consensus BCL6 binding site, the TK promoter, and the firefly luciferase gene was stably expressed in SuDHL4 cells after lentivirus infection and selection with Blasticidin. SuDHL4-3xBCL6-TK-Luc cells were seeded into a Viewplate 384-well assay dish at 15,000 cells/well in 25 ul medium (Alpha-MEM high glucose containing 10% FBS, 25 mM HEPES, […] GlutaMAX, 100 ug/ml Normocin, and […] Gentamycin, Invitrogen). A HP D300 digital dispenser was used to dose cells with DMSO or test compounds across a 10-point range of concentrations (high dose of 10 uM), and cultures were grown in a humidified 5% CO2 incubator at 37° C. After two days, plates were removed from incubator and equilibrated to room temperature. An equal volume of neolite reporter gene assay reagent was added to each well, and samples were processed according to manufacturer's instructions (Perkin Elmer). Luminescent signal was measured using an Envision™ plate reader equipped with a US-Luminescence detector.

Karpas422 cells = experiment: Tumor cell growth inhibition assay; type: cell-based; conditions: Homo sapiens, KARPAS-422, 144 h, six days, ATPlite, read-out: GI Karpas EC50
Protocol: (d) Tumor Cell Growth Inhibition Assay:
Karpas422 cells were seeded into a 96-well plate at 2,000 cells/well in 150 ul medium (Alpha-MEM containing 10% FBS, […] Normocin, and […] Gentamycin, Invitrogen). A HP D300 digital dispenser was used to dose cells with DMSO or test compounds across a 10-point range of concentrations (high dose of 5 uM), and cultures were grown in a humidified 5% CO2 incubator at 37° C. After six days, plates were removed from incubator and equilibrated to room temperature. An equal volume of ATPlite assay reagent was added to each well, and samples were processed according to manufacturer's instructions (Perkin Elmer). Luminescent signal was measured using an Envision plate reader equipped with a US-Luminescence detector.

| Human Liver Microsomes (HLM, % @ 1 h) [1] | Mouse Liver Microsomes (MLM, % @ 1 h) [2] | IC50 [4] | Kd (BCL6 BTB domain) | IC50 [5] | EC50 (Karpas422 cells) | Structure (SMILES) | bioavailability [3] |
| --- | --- | --- | --- | --- | --- | --- | --- |
| 25% | 13% |  |  |  |  | CNC(=O)COc1cc2cc(Nc3nc(N4C[C@H](C)C[C@H](C)C4)ncc3Cl)ccc2n(C)c1=O [BI-3802, reference compound] | poor bioavailability |
| 34% | 15% | 1600 nM | 5.73 nM | 433 nM | 92.6 nM | CNC(=O)COc1cc2cc(Nc3nc(N4C[C@@H](C)N[C@@H](C)C4)ncc3Cl)ccc2n(C)c1=O [Compound X-1, 2-((6-((5-chloro-2-((3S,5R)-3,5-dimethylpiperazin-1-yl)pyrimidin-4-yl)amino)-1-methyl-2-oxo-1,2-dihydroquinolin-3-yl)oxy)-N-methylacetamide] |  |
| 74% | 70% | 1200 nM | 10.3 nM | 91.9 nM | 30.6 nM | CNC(=O)COc1cc2cc(Nc3nc(N4C[C@@H](C)O[C@@H](C)C4)ncc3Cl)ccc2n(C)c1=O [Compound X-2] |  |
| 44% | 0.5% | 1800 nM | 15.7 nM | 643 nM | 37.8 nM | CNC(=O)COc1cc2cc(Nc3nc(N4CC5CCC(C4)C5(F)F)ncc3Cl)ccc2n(C)c1=O [Compound X-3] |  |
| 77% | 61% | 900 nM | 5.33 nM | 6.84 nM | 3.36 nM | CNC(=O)COc1cc2cc(Nc3nc(N4C[C@@H](C)C(F)(F)[C@@H](C)C4)ncc3Cl)ccc2n(C)c1=O [Ia] |  |
